The target in experiment [1] is Bcl-2 protein (histag-Bcl-2, UniProtKB P10415) (Homo sapiens (Human), UniProt P10415). The experiment in a line: Inhibition of Bcl-2 by the fluorescence polarisation technique. Type of experiment: binding. The following applies: fluorescence polarisation test; incubation for 2 hours; read-out: IC50 (nM) Bcl-2 FP. The text has this:
For partial inhibitors, the percentage fluorescence polarisation inhibition for a given concentration of the test compound is indicated.
In general terms: In fluorescence polarisation assays a small probe gives low polarisation when free and higher when bound to something large.

Experiment [2] relates to RS4; 11 leukaemia cell line. Kind of experiment: In vitro cytotoxicity, Microculture Tetrazolium Assay (MTT). In kind it is cell-based. As to conditions: Homo sapiens, 11 cells exposed for 48 hours. How it is done:
The cytotoxicity studies were carried out on the RS4; 11 leukaemia cell line and on H146 small Cell Lung Carcinoma cell line. The cells are distributed onto microplates and exposed to the test compounds for 48 hours. The cell viability is then quantified by a colorimetric assay, the Microculture Tetrazolium Assay (Cancer Res., 1987, 47, 939-942).

In general, IC50 refers to the concentration needed to halve the response being measured.

Molecules are shown by their SMILES.

Bcl-2 protein, sequence (P10415 whole entry): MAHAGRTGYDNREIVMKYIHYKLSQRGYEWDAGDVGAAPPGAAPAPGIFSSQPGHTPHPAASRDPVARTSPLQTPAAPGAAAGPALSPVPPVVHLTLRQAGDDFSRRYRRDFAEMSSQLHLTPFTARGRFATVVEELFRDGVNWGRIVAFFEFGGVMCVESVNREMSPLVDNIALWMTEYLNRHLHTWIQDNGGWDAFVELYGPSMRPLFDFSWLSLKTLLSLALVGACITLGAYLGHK

For `CN(C(=O)c1cc(-c2cc3c(cc2C(=O)N2Cc4ccccc4C[C@H]2CN2CCOCC2)CN(C(=O)Oc2ccc(-n4ccnc4)cc2)CC3)n2c1CCCC2)c1ccc(O)cc1` [Example 143, 4-(1H-imidazol-1-yl)phenyl 6-{1-[(4-hydroxyphenyl)(methyl)carbamoyl]-5,6,7,8-tetrahydroindolizin-3-yl}-7-[(3S)-3-(morpholin-4-ylmethyl)-1,2,3,4-tetrahydroisoquinoline-2-carbonyl]-1,2,3,4-tetrahydroisoquinoline-2-carboxylate], the figures for the half-inhibitory concentration (IC50) in experiment [1] and in experiment [2] were 5.5 nM and 9.3 nM, respectively.
The corresponding values for `C[C@@H]1Cc2ccccc2CN1C(=O)c1cc2c(cc1-c1cc(C(=O)N(C)c3ccc(O)cc3)c3n1CCCC3)CCN(C(=O)Cc1ccc(CN(C)C)cc1)C2` [Example 144, 3-[2-(2-{4-[(Dimethylamino)methyl]phenyl}acetyl)-7-[(3R)-3-methyl-1,2,3,4-tetrahydroisoquinoline-2-carbonyl]-1,2,3,4-tetrahydroisoquinolin-6-yl]-N-(4-hydroxyphenyl)-N-methyl-5,6,7,8-tetrahydroindolizine-1-carboxamide] are 4.8 nM and 82 nM.
`Cc1c(C(=O)N(C)c2ccc(O)cc2)cc(-c2cc3c(cc2C(=O)N2Cc4ccccc4C[C@H]2C)CN(C(=O)Cc2ccc(C#N)cc2)CC3)n1C` [Example 145, 5-{2-[2-(4-Cyanophenyl)acetyl]-7-[(3R)-3-methyl-1,2,3,4-tetrahydroisoquinoline-2-carbonyl]-1,2,3,4-tetrahydroisoquinolin-6-yl}-N-(4-hydroxyphenyl)-N,1,2-trimethyl-1H-pyrrole-3-carboxamide]: the half-inhibitory concentration (IC50) in experiment [1] was 4.2 nM; in experiment [2], 5.5 nM.
As to `Cc1c(C(=O)N(C)c2ccc(O)cc2)cc(-c2cc3c(cc2C(=O)N2Cc4ccccc4C[C@H]2CN2CCOCC2)CN(C(=O)Oc2ccc(C#N)cc2)CC3)n1C` [Example 146, 4-Cyanophenyl 6-{4-[(4-hydroxyphenyl)(methyl)carbamoyl]-1,5-dimethyl-1H-pyrrol-2-yl}-7-[(3S)-3-(morpholin-4-ylmethyl)-1,2,3,4-tetrahydroisoquinoline-2-carbonyl]-1,2,3,4-tetrahydroisoquinoline-2-carboxylate], the half-maximal inhibitory concentration (IC50) in experiment [1] was found to be 2.8 nM; in experiment [2], 6 nM.
The corresponding values for `Cc1c(C(=O)N(C)c2ccc(O)cc2)cc(-c2cc3c(cc2C(=O)N2Cc4ccccc4C[C@H]2C)CN(C(=O)Oc2ccc(C#N)cc2)CC3)n1C` [Example 147, 4-Cyanophenyl 6-{4-[(4-hydroxyphenyl)(methyl)carbamoyl]-1,5-dimethyl-1H-pyrrol-2-yl}-7-[(3R)-3-methyl-1,2,3,4-tetrahydroisoquinoline-2-carbonyl]-1,2,3,4-tetrahydroisoquinoline-2-carboxylate] are 3.2 nM and 2.3 nM.
The corresponding values for `COc1cc(C#N)ccc1OC(=O)N1CCc2cc(-c3cc(C(=O)N(C)c4ccc(O)cc4)c4n3CCCC4)c(C(=O)N3Cc4ccccc4C[C@H]3CN3CCOCC3)cc2C1` [Example 148, 4-Cyano-2-methoxyphenyl 6-{1-[(4-hydroxyphenyl)(methyl)carbamoyl]-5,6,7,8-tetrahydroindolizin-3-yl}-7-[(3S)-3-(morpholin-4-ylmethyl)-1,2,3,4-tetrahydroisoquinoline-2-carbonyl]-1,2,3,4-tetrahydroisoquinoline-2-carboxylate] are 3 nM and 10 nM.
The corresponding values for `Cc1c(C(=O)N(C)c2ccccc2)cc(-c2cc3c(cc2C(=O)N2Cc4ccccc4C[C@H]2C)CN(C(=O)Cc2ccc(NCCN(C)C)cc2)CC3)n1C` [Example 149, 5-{2-[2-(4-{[2-(Dimethylamino)ethyl]amino}phenyl)acetyl]-7-[(3R)-3-methyl-1,2,3,4-tetrahydroisoquinoline-2-carbonyl]-1,2,3,4-tetrahydroisoquinolin-6-yl}-N,1,2-trimethyl-N-phenyl-1H-pyrrole-3-carboxamide] are 11 nM and 124 nM.

Source of the values: patent US9809574B2, “Isoindoline or isoquinoline compounds, a process for their preparation and pharmaceutical compositions containing them” (LES LABORATOIRES SERVIER, priority 2013, dated 2017).
